Where two headings read alike, the source gives them in different places.
Legend:
[1] = target: T1, GPR78 (Homo sapiens, UniProt Q96P69); experiment: cre-luciferase cAMP reporter assay in GPR78-transfected HEK293/cre-luc cells; type: cell-based; details: for effect on genistein-induced cAMP: FIG. 6A; for cAMP level compared with GPR78-expressing cells stimulated with buffer (Basal): Tyrphostin B42 at 23 μM, Tyrphostin A9 at 24 μM; for cAMP level compared to buffer control / genistein: isoflavones, FIG. 3; for cAMP stimulation: final concentration 300 μM in 1.5% DMSO, luciferase reporter assay and direct cAMP measurement (Perkin-Elmer kit)
T1 construct: Full length open reading frames (ORFS) of GPR78 and GPR26 were obtained with PCR; expressed in transfected cells; host or cells: HEK293/cre-luc
T1 sequence (Q96P69 whole entry): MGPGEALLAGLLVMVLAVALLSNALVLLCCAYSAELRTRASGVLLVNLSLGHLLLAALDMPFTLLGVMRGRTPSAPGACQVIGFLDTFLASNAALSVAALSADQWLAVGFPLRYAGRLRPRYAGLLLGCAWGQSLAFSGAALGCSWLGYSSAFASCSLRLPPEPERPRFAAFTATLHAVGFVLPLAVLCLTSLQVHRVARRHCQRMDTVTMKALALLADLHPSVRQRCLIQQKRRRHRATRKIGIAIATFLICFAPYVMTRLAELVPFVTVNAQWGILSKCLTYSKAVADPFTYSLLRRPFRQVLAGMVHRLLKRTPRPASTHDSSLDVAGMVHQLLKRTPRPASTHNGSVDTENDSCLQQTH
Procedure: (§1) HEK293/cre-luc cells were harvested by 0.05% trypsin EDTA buffer, cells re-suspended in complete culture medium 20 million in […] transfection cuvette, 1 microgram receptor plasmid was transfected into reporter cells by electroporation method. The parameter of the GenePulser (Bio-Rad Laboratories, Hercules, Calif.) was set at: voltage 200 volts and capacity 500 microfarads. After electroporation, cells were re-suspended at a density of 25,000 cells in 25 μl complete medium, placed in 384-well plate. After 24 hours of transfection, the transfection medium was replaced with fresh complete medium. Empty plasmid vector was transfected as a negative control (mock transfection).
When inhibitors were used in the assay, they were added 30 minutes before cell stimulation. At the end of incubation, 25 μl of Bright-Glo™ obtained from Promega (Madison, Wis.) was added into each well. Luciferase activity was determined with a luminometer (Luminoskan Ascent®, Thermo-Electron Corp.), at a speed of 100 milliseconds per well.
Response of cells with the expressed receptor to test ligand stimulation was subject to two types of detection: intracellular cAMP accumulation and intracellular Ca2+ flux monitored with fluorescent intensity using a Fluorimetric Image Plate Reader (FLIPR).

[2] = target: protein kinase A; details: ref [27]; read-out: reported IC50 of H89; cited from earlier work
[3] = target: adenylyl cyclase; details: cell-free enzyme assays, ref [28]; read-out: published IC50; cited from earlier work
[4] = target: protein tyrosine kinase; details: literature values; for genistein depending on the substrates used; read-out: IC50, inhibition of protein tyrosine kinase; cited from earlier work
[5] = target: T2, GPR26 (Homo sapiens, UniProt Q8NDV2); experiment: antagonist cre-luc reporter assay, inhibition of GPR26 activation; type: cell-based
T2 construct: Full length open reading frames (ORFS) of GPR78 and GPR26 were obtained with PCR; expressed in transfected cells; host or cells: HEK293/cre-luc
T2 sequence (Q8NDV2 whole entry): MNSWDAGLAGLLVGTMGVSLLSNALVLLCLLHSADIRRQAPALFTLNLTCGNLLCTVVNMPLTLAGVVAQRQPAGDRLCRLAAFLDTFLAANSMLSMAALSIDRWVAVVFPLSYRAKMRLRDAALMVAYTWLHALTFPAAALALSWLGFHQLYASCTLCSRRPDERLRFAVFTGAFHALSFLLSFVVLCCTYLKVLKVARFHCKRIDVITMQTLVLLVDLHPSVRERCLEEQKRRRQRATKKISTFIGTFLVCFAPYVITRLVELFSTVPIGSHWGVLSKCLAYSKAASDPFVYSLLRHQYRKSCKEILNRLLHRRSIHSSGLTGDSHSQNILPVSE
Procedure: (§2) Screening was performed by using cells transiently expressing GPR26 or GPR78. HEK293/cre-luc cells were harvested by using 0.05% trypsin EDTA solution, and were suspended in complete culture medium at a density of 20 million in 0.4 ml transfection cuvettes. One 1 microgram plasmid construct containing GPR78 or GPR26 cDNA was transfected into reporter cells by electroporation using the GenePulser (Bio-Red Laboratories, Hercules, Calif.). The transfection conditions were: voltage at 200 volts and capacity at 500 microfarads. After electroporation, cells were suspended at a density of 25,000 cells in 25 μl complete medium and placed in a 384-well plate. After 24 hours of transfection, the transfection medium was replaced with fresh complete medium. Empty plasmid vector was transfected as a negative control (mock transfection). The compounds were arranged in 96-well format in eight racks of 80, with one compound per well (250 μl at 10 mM in DMSO). […] By the end of incubation, 25 ul of Bright-Glo™ (Promega, Madison, Wis.) was added into each well. Luciferase activity was determined with a Luminometer (Luminoskan Ascent, Thermo Labsystems), at a speed of 100 milliseconds per well.
(§3) To determine the inhibitory potency of the two molecules, dose-response curves were generated with the same assay method and IC50 values calculated from the curves.

[6] = target: T1, GPR78; experiment: antagonist cre-luc reporter assay, inhibition of GPR78 activation; type: cell-based
Procedure: as §2, §3

[7] = target: NO synthase (NOS) (Mus musculus, UniProt P29477); details: read-out: IC50, inhibition of NOS; cultured peritoneal macrophages, ref [40]; cited from earlier work
Chain of NO synthase (NOS) (P29477 whole entry): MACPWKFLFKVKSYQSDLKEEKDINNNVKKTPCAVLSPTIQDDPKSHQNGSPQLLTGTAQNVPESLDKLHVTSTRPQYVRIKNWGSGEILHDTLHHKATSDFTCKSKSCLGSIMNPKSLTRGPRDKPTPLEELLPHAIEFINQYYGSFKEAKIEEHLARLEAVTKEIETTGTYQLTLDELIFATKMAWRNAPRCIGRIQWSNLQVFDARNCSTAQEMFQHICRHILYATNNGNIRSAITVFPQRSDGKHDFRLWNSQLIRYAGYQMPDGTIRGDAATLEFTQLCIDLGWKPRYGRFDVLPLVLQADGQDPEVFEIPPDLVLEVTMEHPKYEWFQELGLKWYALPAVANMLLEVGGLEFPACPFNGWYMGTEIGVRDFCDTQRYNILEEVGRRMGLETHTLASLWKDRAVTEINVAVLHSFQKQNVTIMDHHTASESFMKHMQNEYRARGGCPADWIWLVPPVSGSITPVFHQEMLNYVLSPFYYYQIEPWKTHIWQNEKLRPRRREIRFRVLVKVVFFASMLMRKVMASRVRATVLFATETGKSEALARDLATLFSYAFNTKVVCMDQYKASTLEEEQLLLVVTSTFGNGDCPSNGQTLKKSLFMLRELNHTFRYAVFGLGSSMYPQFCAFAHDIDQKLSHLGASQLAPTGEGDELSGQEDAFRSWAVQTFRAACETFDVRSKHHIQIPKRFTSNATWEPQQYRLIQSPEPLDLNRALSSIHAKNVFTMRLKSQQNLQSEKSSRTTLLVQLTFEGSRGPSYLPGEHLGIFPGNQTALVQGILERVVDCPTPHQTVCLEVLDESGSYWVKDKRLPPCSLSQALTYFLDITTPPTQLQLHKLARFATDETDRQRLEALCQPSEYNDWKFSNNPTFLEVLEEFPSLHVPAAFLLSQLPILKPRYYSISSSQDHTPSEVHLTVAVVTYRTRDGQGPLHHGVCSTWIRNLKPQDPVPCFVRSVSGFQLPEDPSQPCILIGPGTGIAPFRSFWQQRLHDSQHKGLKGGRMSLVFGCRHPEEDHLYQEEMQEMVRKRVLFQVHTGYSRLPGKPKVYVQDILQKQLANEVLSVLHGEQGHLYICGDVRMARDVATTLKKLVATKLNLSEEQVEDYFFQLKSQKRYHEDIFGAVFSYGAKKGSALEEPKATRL

[8] = system: rabbit aortic rings; details: read-out: IC50, block of acetylcholine-induced relaxation, ref [40]; cited from earlier work
[9] = target: T1, GPR78; experiment: direct intracellular cAMP measurement (Meso Scale Discovery kit) in HEK293/cre-luc cells stably transfected with GPR78; type: cell-based; details: FIG. 2C, read-out: EC50, increase of cAMP level
Procedure: (§4) Constructs PCR3.1-GPR78 and PCR3.1-GPR26 were transfected into HEK293/cre-luc cells with use of Lipofectamine™ 2000 and cells were selected for G418 resistance. Cells resistant to G418 were further diluted and selected for individual colonies. Cell lines grown from the G418-resistant colonies were screened for positive response with genistein in the Cre-Luciferase cAMP assay.
(§5) Intracellular cAMP was measured directly with a cAMP kit purchased from Meso Scale Discovery (Gaithersburg, Md., Ma6000 cAMP 384-well Kit, Catalog number K210FDD-2). The assay was preformed by following the manufacturer's protocol. Briefly, stable HEK293/cre-luc cells expressing GPR78 or GPR26 were harvested, washed with PBS and resuspended at 300,000/10 μl of assay buffer (from the kit) containing 0.5 mM IBMX. Genistein at appropriate concentrations was diluted in the cAMP assay buffer and 5 μl was added into wells of the assay plate. The mixture was then incubated at room temperature for 30 minutes. Light intensity in assay wells was measured using a MSD SI6000 instrument obtained from Meso Scale Discovery.

[10] = target: T2, GPR26; experiment: cre-luciferase cAMP reporter assay in GPR26-transfected HEK293/cre-luc cells; type: cell-based; details: cre-luc reporter assay, transient transfection, FIG. 8A; read-out: EC50, activation of GPR26
Procedure: as §1
Forty hours after transfection, cells were stimulated by adding 5 μl of ligand in 60 μM 4-(3-butoxy-4-methoxy-benzyl)-2-Imidazolidinone in 293 SFM II serum-free media obtained from Gibco (Gaithersburg, Md.), and incubated for 6 hours at 37° C. in a 5% CO2-95% air incubator. […] Luciferase activity was determined with a luminometer (Luminoskan Ascent®, Thermo-Electron Corp.), at a speed of 100 milliseconds per well.
(§6) GPR26, another orphan GPCR, shares 51% identity in the seven transmembrane regions with GPR78 ([19]). […] HEK293/cre-luc cells were transiently transfected with pCR3.1-GPR26 and monitored cAMP levels upon stimulation with genistein. […]

[11] = target: T2, GPR26; experiment: direct intracellular cAMP measurement (Meso Scale Discovery kit) in HEK293/cre-luc cells stably transfected with GPR26; type: cell-based; details: cells stably expressing GPR26, FIG. 8B
Procedure: as §4, §5, §6

[12] = target: T1, GPR78; experiment: Ca2+ flux assay (FLIPR) in GPR78-expressing HEK/cre-luc cells; type: cell-based; details: genistein at concentrations near 100 μM, FIG. 5
Source text: Response of cells with the expressed receptor to test ligand stimulation was subject to two types of detection: intracellular cAMP accumulation and intracellular Ca2+ flux monitored with fluorescent intensity using a Fluorimetric Image Plate Reader (FLIPR). For cAMP measurement, a HEK293 cell line that had been stably transfected with luciferase reporter gene, was used as a host cell transiently transfected with the pCR3.1-GPR78 construct described in Example 1.
(§7) Ca2+ flux measurements were taken to test if GPR78, when activated with genistein, is coupled to the Gq-mediated pathway.

[13] = target: T3, GPR30 (Homo sapiens, UniProt Q99527); details: Gβγ-mediated pathway, ref [25]; cited from earlier work
T3 construct: host or cells: MCF-7, MDA-MB-231, SKBR3 (as cited)
T3 sequence (Q99527 whole entry): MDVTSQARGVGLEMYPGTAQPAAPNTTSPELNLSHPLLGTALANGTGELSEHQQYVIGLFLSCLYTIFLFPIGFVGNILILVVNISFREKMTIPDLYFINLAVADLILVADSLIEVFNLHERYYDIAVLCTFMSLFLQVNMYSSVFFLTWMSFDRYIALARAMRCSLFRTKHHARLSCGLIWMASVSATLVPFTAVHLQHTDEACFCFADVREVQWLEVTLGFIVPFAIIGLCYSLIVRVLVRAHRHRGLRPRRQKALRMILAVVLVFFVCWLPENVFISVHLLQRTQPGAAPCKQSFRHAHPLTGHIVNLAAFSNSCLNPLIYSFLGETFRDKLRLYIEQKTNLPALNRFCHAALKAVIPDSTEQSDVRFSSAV

[14] = target: T4, GPR154 (Homo sapiens, UniProt Q6W5P4); experiment: Ca2+ flux assay (FLIPR), positive control receptor; type: cell-based; details: FIG. 5
T4 construct: expressed in transfected cells; host or cells: HEK293/cre-luc
T4 sequence (Q6W5P4 1-371): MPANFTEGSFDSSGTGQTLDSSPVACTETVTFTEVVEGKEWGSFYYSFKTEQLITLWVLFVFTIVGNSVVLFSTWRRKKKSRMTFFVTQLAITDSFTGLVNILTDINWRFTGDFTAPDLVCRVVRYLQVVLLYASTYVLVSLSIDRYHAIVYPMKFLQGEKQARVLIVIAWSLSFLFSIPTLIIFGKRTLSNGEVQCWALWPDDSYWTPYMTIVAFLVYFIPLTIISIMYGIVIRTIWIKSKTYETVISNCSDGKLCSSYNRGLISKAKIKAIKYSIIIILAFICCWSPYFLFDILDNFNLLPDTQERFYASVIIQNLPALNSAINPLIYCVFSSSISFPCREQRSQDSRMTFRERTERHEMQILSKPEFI
Source text: as §7

Question: What does the source list for Cl.Cl.O=S(=O)(NCCNCC=Cc1ccc(Br)cc1)c1cccc2cnccc12 [H89, N-[2-(p-bromocinnamylamino)ethyl]-5-isoquinolinesulfonamide dihydrochloride]?
Answer: effect on genistein-induced cAMP ([1]; 10 μM H89, 30 min pre-incubation): Most of genistein-induced cAMP was reduced; effect on basal (constitutive) cAMP level ([1]; 10 μM H89, compared to cells with no H89, FIG. 6A): decrease of the basal cAMP level by approximately half; effect on genistein-induced cAMP ([1]; 100 μM H89, 30 min pre-incubation): all cAMP accumulation was abolished; effect on basal (constitutive) cAMP level ([1]; 100 μM H89, FIG. 6A): completely inhibited cAMP accumulation; IC50 [2]: 0.05 µM

Question: With Nc1ncnc2c1ncn2C1CCCO1 (centres unmarked) [SQ22536, 9-(Tetrahydro-2-furanyl)-9H-purin-6-amine] as the compound, how does the “reduction of genistein-stimulated cAMP” value ([1]; SQ22536 at 20 μM pre-incubated, FIG. 7) read?
Answer: Its value is 25%.

Question: What about the “reduction of cAMP level resulting from constitutive activity of GPR78” value ([1]; SQ22536 at 20 μM pre-incubated, absence of genistein, FIG. 7) of the same compound?
Answer: The value was 34%.

Question: And the IC50 [3]?
Answer: Its IC50 is 20 µM.

Question: For CC(C)(C)c1cc(C=C(C#N)C#N)cc(C(C)(C)C)c1O [Tyrphostin A9], which “cAMP level compared with GPR78-expressing cells stimulated with buffer (Basal)” value ([1]; FIG. 1) is on record?
Answer: Its value is “not higher than the level in GPR78-expressing cells stimulated with buffer”.

Question: And the IC50 [4]?
Answer: The IC50 was 0.04 to 9 µM.

Question: For N#C/C(=C\c1ccc(O)c(O)c1)C(=O)NCc1ccccc1 [Tyrphostin B42], which “cAMP level compared with GPR78-expressing cells stimulated with buffer (Basal)” value ([1]; FIG. 1) is on record?
Answer: The value was “not higher than the level in GPR78-expressing cells stimulated with buffer”.

Question: And the IC50 [4]?
Answer: Its IC50 is 20 µM.

Question: Which “cAMP level compared to buffer control / genistein” value [1] does the source give for COc1ccc(-c2coc3cc(O)cc(O)c3c2=O)cc1 [biochanin A] here?
Answer: The value was “only slightly induced cAMP levels”.

Question: For O=c1c(-c2ccc(O)cc2)coc2cc(O)ccc12 [daidzein], which “cAMP level compared to buffer control / genistein” value [1] is on record?
Answer: The value was “significantly increased cAMP level comparable to that by genistein”.

Question: Which IC50 [5] does the source give for c1ccc2c(c1)[I+]c1ccccc1-2 [diphenyleneiodonium Cl, Diphenyleneiodonium Cl] here?
Answer: Its IC50 is 39 µM.

Question: And the IC50 [6]?
Answer: Its IC50 is 65 µM.

Question: What about the IC50 [7] of the same compound?
Answer: Its IC50 is 0.03 µM.

Question: And the IC50 [8]?
Answer: Its IC50 is 0.3 µM.

Question: What does the source list for O=c1c(-c2ccc(O)cc2)coc2cc(O)cc(O)c12 [genistein]?
Answer: EC50 [1]: 6 to 10 µM; increase of luciferase activity (cAMP production) compared to the mock transfection control ([1]; 25 μM genistein, transiently transfected cells, FIG. 1): more than 8 fold; EC50 ([1]; FIG. 2A, read-out: EC50, induction of cAMP): 7 µM; EC50 [9]: ~6 µM; EC50 [10]: ~10 µM; cAMP production [11]: stimulated cAMP production; activation in Ca++ flux assay [12]: not activated; IC50 [4]: 1 to 22 µM; potency of GPR30 activation [13]: low μM range

Question: Which cAMP stimulation [1] does the source give for CC(=O)[C@H]1CC[C@H]2[C@@H]3CCC4=CC(=O)CC[C@]4(C)[C@H]3CC[C@]12C [progesterone] here?
Answer: The cAMP stimulation was “No cAMP stimulation was observed”.

Question: For C[n+]1cc2c3c(ccc2c2ccc4cc5c(cc4c21)OCO5)OCO3 [sanguinarine Cl hydrate], which IC50 ([5]; cre-luc reporter assay, dose-response curves, read-out: IC50, inhibition of GPR26 activation) is on record?
Answer: Its IC50 is 0.26 µM.

Question: What about the IC50 ([6]; cre-luc reporter assay, dose-response curves, read-out: IC50, inhibition of GPR78 activation) of the same compound?
Answer: Its IC50 is 0.65 µM.

Question: With C[C@]12CC[C@H]3[C@@H](CCC4=CC(=O)CC[C@@]43C)[C@@H]1CC[C@@H]2O [testosterone] as the compound, how does the cAMP stimulation [1] read?
Answer: Its cAMP stimulation is “No cAMP stimulation was observed”.

Question: Which “response in Ca2+ flux assay” value [14] does the source give for “neuropeptide S (SFRNGVGTGMKKTSFQRAKS) [ligand of GPR154, positive control in Ca2+ flux assay]” here?
Answer: The value was “responded to neuropeptide S acutely”.
